We go through three compounds from patent publication US6610699B2, “Use of L-carnitine and its alkanoyl derivatives in the preparation of medicaments with anticancer activity” (Sigma-Tau Industrie Farmaceutiche Riunite S.p.A., priority 1998, dated 2003).

In one data set the test system is female BALB/c mice. As to the kind of experiment: Taxol (i.p.)-induced neutropenia in the mouse, blood cell count. The protocol:
In this model, the amount of circulating neutrophils was measured.
Acetyl L-carnitine inner salt (sterile ampoule), solubilised in water for injectable preparations, was used. Each ampoule of ALC is dissolved in 4 ml of water for injections (Solution O). Two ml of (O) are brought up to 25 ml with sterile PBS (Sigma), so as to have 10 mg/ml for subcutaneous administration (100 mg/kg/ 10 ml); 0.8 ml of (O) are brought to 50 ml with PBS in order to have 2 mg/ml for oral administration (100 mg/kg/50 ml).
(§1) At the time of use, the 12 mg/ml solution is diluted 1:4 with saline in phosphate buffer (PBS) (SIGMA,) and injected i.p. (30 mg/kg/10 ml).
The mice are anaesthetised with CO2; blood is taken from the retro-orbital plexus (0.5 ml blood/mouse) and placed in Eppendorf test tubes containing 10 μl of Vister heparin (5000 U/ml). The animals are sacrificed by cervical dislocation. Later, the bone marrow samples are taken.
(§2) The instrument is used according to the instructions provided in the operating manual. The blood (25 μl) is taken from the dilutor and brought to a volume of 10 ml with isotonic solution (PLTA Saline, Delcon) in a beaker (dil. 1:400) (Solution A). From Solution A, the dilutor takes 100 μl and brings them to 10 ml (dil. 1:100) in another beaker (Solution B). To Solution A are added 3 drops of lysing agent (Emosol, Delcon), the solution is mixed by hand and left to act for approximately 2 minutes so that the red blood cells are lysed and HGB (haemoglobin) released. Solution A containing the lysing agent is used for the WBC and haemoglobin (HGB) readings. Solution B is used for the RBC and platelet (PLT) readings.
Double readings are done on each sample, and between one sample and the next, the instrument is washed using isotonic solution,
(§3) Superfrost plus slides (25×75×1 mm) (Mensel-Glaser), ready for use, are adopted. The blood (8 μl) is deposited on the right-hand side of the slide; another slide, placed at a 45° angle, to the left of the blood, is drawn back until in comes into contact with the drop which spreads rapidly along the contact line between the two slides; the slide is moved forwards with a smooth, rapid movement so as to obtain a thin film of blood. The slide is left to dry in air, stained with Diff-Quick (DADE) dye, according to the attached instructions, and dried again in air.
The slides are immersed in Histolemon solution (Carlo Erba) for 2 sec.; a drop of synthetic mountant (Shandon) os deposited at the centre of the slide and a cover slide is placed over it covering the entire blood smear, taking care not to form bubbles between the two slides. The slides are dried and then the WBC count is performed, up to 100, with an optical microscope, after depositing a drop of cedar oil on the slide.
(§4) The quantity of […], assessed using the haemocytometer, is multiplied by the percentage value of the corresponding neutrophil granulocytes of the leukocyte formula. This parameter, divided by 100, expresses the value of neutrophils/mm^3 blood.
Data are expressed as means ±SE. Comparison between the neutrophil granulocyte values obtained for the different groups is done using ANOVA. Abnormal values are subjected to the Dixon test.

Data set [1] relates to BALB/c mice inoculated with murine carcinoma of the breast (L-MM3). Put plainly: Taxol-induced neutropenia in mice with L-MM3 carcinoma of the breast, blood cell count. The protocol: In addition, in this tumour model, the amount of circulating neutrophils was measured.
Acetyl L-carnitine inner salt (sterile ampoule), solubilised in water for injectable preparations, was used. Each ampoule of ALC is dissolved in 4 ml of water for injections (Solution O). 0.8 ml of (O) are brought to 50 ml with sterile PBS (Sigma) in order to perform the oral administration (100 mg/kg/50 ml).
as §1
Animals: 120 female BALB/c mice weighing 18-20 g (Harlan)
Treatment schedule 1: the transplantable murine breast cancer cells (L-MM3) of Balb/c origin are grown at 37° C. in plastic flasks in a 5% CO2 humidified incubator in DMEM medium containing 5% heat-inactivated FCS, L-glutamine 2 mM, and gentamicin 80 μg/ml. At the time of inoculation, the cells are detached with trypsin-EDTA and re-suspended in the same medium without […].
Unanaesthetised female Balb/c mice received subcutaneous injections in the flank of 4×10^5 cells in 0.2 ml of DMEM.
Four days after inoculation of the tumour, the animals were treated with the molecules according to the following schedule, for the purposes of evaluating neutropenia:
ALC is administered then for 10 days; the animals are sacrificed after 6 hours.
The experimental groups, each consisting of 15 mice, are:
Blood and bone marrow samples are taken for the first treatment schedule animals. On the days they are sacrificed, the mice are anaesthetised with CO2; blood is taken from the retro-orbital plexus (0.5 ml blood/mouse) and placed in Eppendorf test tubes containing 10 μl of Vister heparin (5000 U/ml). The animals are sacrificed by cervical dislocation. Later, the bone marrow samples are taken.
as §2
as §3, with “Double readings are done on each sample, and between one sample and the next, the instrument is washed using isotonic solution, Superfrost” for “Superfrost”
The slides are immersed in Histolemon solution (Carlo Erba) for 2 sec.; a drop of synthetic mountant (Shandon) is deposited at the centre of the slide and a cover slide is placed over it covering the entire blood smear, taking care not to form bubbles between the two slides. The slides are dried and then the WBC count is performed, up to 100, with an optical microscope, after depositing a drop of cedar oil on the slide.
as §4
Comparison between the neutrophil granulocyte values obtained for the different groups is done using ANOVA.

A further data set has as its system M109 murine lung cancer. The note with it: for Size of metastases / number of lung metastases (Mean ± SD): day 22 after inoculation.
The mark [2] stands for this setting: 6 hours after last administration (Table 4).
[3] abbreviates: taxol 30 mg/kg i.p. x4, ALC 100 mg/kg, sacrifice 6 hours after last taxol administration.
The mark [4] stands for this setting: taxol 30 mg/kg i.p. x4 on alternate days, ALC 100 mg/kg, sacrifice 6 hours after last taxol administration.
Where [5] appears, read: taxol i.p., sacrifice 3 days after last taxol administration.
[6] abbreviates: three days after last administration (Table 5).
Setting [7] is: L-MM3-bearing mice, sacrifice 6 hours after last taxol.

Description for M109 murine lung cancer: The animals were kept under observation up to day 22 after inoculation of the M109 murine lung cancer cells, and were then sacrificed the lungs removed to determine the number of metastases.
Determination of the number of lung metastases: on day 22 after inoculation of M109 murine lung cancer, the study animals were sacrificed by cervical dislocation. Their lungs were then removed and kept for approximately 5-7 days in 5 ml of Bouin's solution with the following composition: 71% as saturated picric acid solution (Merck), and 24% as 10% formaldehyde (Fluka). When lung metastases were evident, their numbers were counted.
Statistical analysis of the data for tumour size and number of lung metastases was carried out using the non-parametric Mann-Whitney test for unpaired data.

For `CC(=O)O[C@H](CC(=O)[O-])C[N+](C)(C)C` [ALC, acetyl L-carnitine], the “changes in neutrophils compared to vehicle alone or untreated animals (in words)” value with female BALB/c mice (setting [2]) and with female BALB/c mice (setting [6]) was “no changes” each time. Moreover, the results for the “polymorphonucleates, change under taxol with acetyl L-carnitine” value with female BALB/c mice (acetyl L-carnitine 100 mg/kg oral (os) with taxol 30 mg/kg i.p. x4) and with female BALB/c mice (acetyl L-carnitine 100 mg/kg subcutaneous (sc) with taxol 30 mg/kg i.p. x4) were −23% and 8-43%, respectively. In addition, the Absolute neutrophils in the data set with female BALB/c mice (setting [3]) is recorded as 708 ± /mm^3; in the data set with female BALB/c mice (setting [5]), 691 ± /mm^3. In addition, the figures for the Lymphocytes in the data set with female BALB/c mice (setting [3]) and with female BALB/c mice (setting [5]) were 88.7% and 89.9%, respectively. For the same compound, the results for the Neutrophils in the data set on female BALB/c mice (setting [3]) and in the data set with female BALB/c mice (setting [5]) were 11.2% and 10.1%, respectively. Moreover, the figures for the WBC in the data set with female BALB/c mice (setting [4]) and in the data set on female BALB/c mice (setting [5]) were 6452 Mm^3 and 6920 Mm^3, respectively. The neutrophil granulocytes in data set [1] (acetyl L-carnitine 100 mg/kg os once daily for 10 days combined with taxol 30 mg/kg i.p. x4) is given as 335 /mm^3. Moreover, the “effect on the formation of lung metastases (in words)” value in the data set on M109 murine lung cancer (ALC 100 mg/kg os) is reported as “mild inhibitory effect”.

On to `CC(=O)O[C@H]1C(=O)[C@@]2(C)[C@H]([C@H](OC(=O)c3ccccc3)[C@]3(O)C[C@H](OC(=O)[C@H](O)[C@@H](NC(=O)c4ccccc4)c4ccccc4)C(C)=C1C3(C)C)[C@]1(OC(C)=O)CO[C@@H]1C[C@@H]2O` [Taxol, paclitaxel, reference compound], for which, in the data set on female BALB/c mice (mouse, in vivo), the “neutrophil granulocytes vs vehicle” value was −64% and the reduction in neutrophils turned out to be 98%. Moreover, in the data set with female BALB/c mice (mouse, in vivo, ip), the Absolute neutrophils entry is given as “****250 ± /mm^3”, the Lymphocytes was determined as 95.5%, the Neutrophils is 4.5% and the WBC worked out at 5855 Mm^3. In addition, in data set [1] (mouse, in vivo), the Lymphocytes came to 98.6 ± 0.2%, the Neutrophils result is “****1.3 ± 0.2^ %” and the Platelets was 539000 ± 36057 mm^3. In the data set on M109 murine lung cancer, the Size of metastases entry is “S (S = Small (<1 mm diam))” and the “number of lung metastases (Mean ± SD)” value was “**9 ± 7.3”.

On to `CC(=O)O[C@H](CC(=O)[O-])C[N+](C)(C)C` [Vehicle + ALC, acetyl L-carnitine], for which the “changes in neutrophils compared to vehicle alone or untreated animals (in words)” value in the data set with female BALB/c mice (setting [2]) and in the data set on female BALB/c mice (setting [6]) was “no changes” in each case. The Absolute neutrophils with female BALB/c mice (setting [3]) was 511 ± /mm^3; in the data set with female BALB/c mice (setting [5]), 625 ± /mm^3; in data set [1] (setting [7]), “***607 ± 68 ^ /mm^3”. The Lymphocytes in the data set with female BALB/c mice (setting [3]) is 91.5%; in the data set on female BALB/c mice (setting [5]), 89.2%; in data set [1] (setting [7]), 87.6 ± 0.9%. Moreover, the values for the Neutrophils (with female BALB/c mice (setting [3]); in the data set on female BALB/c mice (setting [5]); in data set [1] (setting [7])) were 8.5%, 10.7% and 12.3 ± 0.9%, respectively. The WBC in the data set on female BALB/c mice (setting [4]) is 5950 Mm^3; in the data set with female BALB/c mice (setting [5]), 6067 Mm^3; in data set [1] (L-MM3-bearing mice, taxol 30 mg/kg i.p. x4, ALC 100 mg/kg os 10 days, sacrifice 6 hours after last taxol), 4950 ± 385 Mm^3. Further, the Platelets in data set [1] (setting [7]) was determined as 433000 ± 45731 mm^3. The Size of metastases entry in the data set with M109 murine lung cancer is on record as “M, S”. In the data set with M109 murine lung cancer, the “number of lung metastases (Mean ± SD)” value was “**77 ± 13.2”.
